# Assay results from US8193200B2, “Antagonists of A2B adenosine receptors for treatment of inflammatory bowel disease” (University of Virginia Patent Foundation, priority 2007, dated 2012).
# Target: T1, A2b receptor (Homo sapiens, UniProt P29275)
# T1 construct: endogenous in cells; host or cells: T84 cells
# T1 sequence (P29275 1-332): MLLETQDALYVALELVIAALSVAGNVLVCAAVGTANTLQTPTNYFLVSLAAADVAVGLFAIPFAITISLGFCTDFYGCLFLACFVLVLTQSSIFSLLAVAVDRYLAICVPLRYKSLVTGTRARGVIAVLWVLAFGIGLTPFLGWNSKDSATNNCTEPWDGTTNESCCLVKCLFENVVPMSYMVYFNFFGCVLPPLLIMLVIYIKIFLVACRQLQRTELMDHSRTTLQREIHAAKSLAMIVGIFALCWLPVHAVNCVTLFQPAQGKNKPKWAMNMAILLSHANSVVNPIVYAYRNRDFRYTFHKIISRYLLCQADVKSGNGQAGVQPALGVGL
# Experiment: cAMP measurement in adenosine-stimulated T84 cells
# Type: cell-based
# Settings: T84 monolayers, adenosine 100 μM, ATL-801 100 μM; unstimulated 1.7±0.05, adenosine alone 4.7±0.66
# Method: T84 cells were stimulated with adenosine (100 μM) or forskolin (10 μM) for 7 min, with or without ATL-801 (100 μM). Total cell lysates were processed in the presence of IBMX (phosphodiesterase inhibitor). cAMP levels were measured in whole cell lysates using a competitive cAMP immunoassay kit (Applied Biosystems, Bedford, Mass.) according to the manufacturer's instructions. Luminescence was read with a Luminoscan Ascent plate reader (Thermo Labsystems, Needham Heights, Mass.).
smiles,measurement,value
CCCn1c(=O)n(C2CC2)c(=O)c2[nH]c(-c3ccc(N(CC)C(=O)c4cccnc4)nc3)nc21 [ATL-801],"adenosine mediated cAMP levels, adenosine+ATL-801",0.2±0.06 pmoles/10^6 cells
